Reference: US6825178B1, “Methods and products for treating pseudomonas infection” (The Brigham and Women's Hospital, Inc., priority 1996, dated 2004)
Marks after values point to notes of the source that are not given here.

Assays:
[1] = tested on: transformed human airway epithelial cells (CFT1-LCFSN line); experiment: Inhibition of internalization of P. aeruginosa strain 324 into CFT1-LCFSN cells (bacterial ingestion assay); format: cell-based; details: strain 324, CFT1-LCFSN cells
Text: (§1) Cell lines. CFT1-LCFSN cells, carrying a retrovirally introduced chromosomal copy of the wild-type human CFTR gene were kindly provided by J. Olsen, J. Yankaskis and L. Johnson from The University of North Carolina, Chapel Hill, N.C.. The cell line parental to CFT1-LCFSN is designated CFT1; it is a line of human papilloma virus 18 E6/E7 transformed bronchial epithelial cells derived from a CF patient homozygous for ΔF508 CFTR. The CFT1-LCFSN cells have normal chloride ion conductance. CFT1-ΔF508 cells are derived from CFT1 cells and carry a cDNA introduced by a retrovirus vector that encodes the ΔF508 mutant form of CFTR. Cells were grown in supplemented F-12 medium as described in 5% CO2 at 37° C.
(§2) Bacterial strains. P. aeruginosa strains used include PAO1, a well-characterized laboratory strain, and strains 149 and 324, non-mucoid, LPS-smooth clinical isolates of P. aeruginosa from CF patients early in the course of infection. Fresh cultures of P. aeruginosa grown overnight at 37° C. on a tryptic soy agar plate were suspended in supplemented medium to prepare the bacterial inoculum. Approximately 10^6 cfu of the bacterial inoculum were added per well of 10^5, epithelial cells.
(§3) Reagents for inhibition of ingestion assays. Membranes were prepared from C127 cells as described by O'Riordan et al.. Membranes were suspended in 150 mM NaCl, 50 mM Tris, pH 7.5 and 1 mM EDTA and added at the indicated concentration to suspensions of P. aeruginosa strains prior to adding this mixture to CFT1-LCFSN cells to measure bacterial uptake. Membranes from CEM/VbI cells expressing P-glycoprotein and membranes from control CEM cells lacking P-glycoprotein were obtained from James Croop of Harvard Medical School. Purified (˜85%) recombinant CFTR was obtained from Genzyme Corp., and prepared as described. The protein was solubilized in 100 mM NaCl, 10 mM Tris, pH 8.0, 2 mM di-thio-threitol and 0.1% sodium dodecyl sulfate. Monoclonal antibodies raised to synthetic peptides corresponding to the first (MAb CF3) and fourth (MAb CF4) predicted extracellular domains of CFTR, as well as a MAb specific to a peptide representing the carboxy-terminal 14 amino acids of mature CFTR (MAb CF2) were provided by Dr. George Banting, University of Bristol, Bristol, UK [12]. Synthetic peptides were obtained from Chiron Mimetopes, San Diego, Calif. Peptide GRIIASYDPDNKEER (15 amino acids) (SEQ.ID.NO. 3) represents amino acids 103-117 of mature CFTR, peptide […] (31 amino acids) (SEQ.ID.NO. 4) represents amino acids 881-911 of mature CFTR. Peptides were made up as a stock solution in F-12 medium containing 1 μM/μl based on the purity reported by the manufacturer. Peptides were diluted in F-12 tissue culture medium prior to use in assays.
(§4) Bacterial ingestion assay. Cells were released from monolayers in tissue culture flasks by 5 min. of incubation with trypsin-versene mixture (BioWhitaker, Walkersville, Md.), washed, counted and seeded into 96-well tissue culture plates at 10^5 cells/well in supplemented F-12 medium and incubated at 37° C. in 5% CO2. Fresh cultures of P. aeruginosa grown overnight at 37° C. on a tryptic soy agar plate were suspended in supplemented F-12 medium to prepare the bacterial inoculum. Then 10^6 colony forming units (cfu) of the bacterial inoculum were added per well of 10^5 epithelial cells. Bacteria were allowed to invade the epithelial cells for 3 to 4 hours at 37° C., after which nonadherent bacteria were removed by washing. The remaining steps of the assay and the steps involved in the controls have previously been described. Three to 9 replicates were obtained per point, and analyzed using analysis of variance (ANOVA) and the Fisher PLSD statistic to determine pairwise differences. […]

[2] = tested on: transformed human airway epithelial cells (CFT1-LCFSN line); experiment: Inhibition of internalization of P. aeruginosa strain PAO1 into CFT1-LCFSN cells (bacterial ingestion assay); format: cell-based; details: strain PAO1, CFT1-LCFSN cells
Text: as §1, §2
as §3, with “GRIIASYDPDNKEER” left out
as §4

Sequence: GRIIASYDPDNKEER (listed as Homo Sapiens) [First domain]
- Mean cfu of P. aeruginosa internalized (standard deviation) ([1]; 0.001 nanomoles peptide): 1.3938 × 10^5 (7.6735 × 10^3) cfu
- Mean cfu of P. aeruginosa internalized (standard deviation) ([1]; 0.01 nanomoles peptide): 1.405 × 10^5 (9.4323 × 10^3) cfu
- Mean cfu of P. aeruginosa internalized (standard deviation) ([1]; 0.1 nanomoles peptide): 7.232 × 10^4 (5.6982 × 10^3)^a cfu
- Mean cfu of P. aeruginosa internalized (standard deviation) ([1]; 1 nanomoles peptide): 1.462 × 10^4 (2.6955 × 10^3)^a cfu
- Mean cfu of P. aeruginosa internalized (standard deviation) ([2]; 0.001 nanomoles peptide): 5.533 × 10^4 (5.2986 × 10^3) cfu
- Mean cfu of P. aeruginosa internalized (standard deviation) ([2]; 0.01 nanomoles peptide): 3.482 × 10^4 (3.8473 × 10^3)^a cfu
- Mean cfu of P. aeruginosa internalized (standard deviation) ([2]; 0.1 nanomoles peptide): 2.513 × 10^4 (1.6609 × 10^3)^a cfu
- Mean cfu of P. aeruginosa internalized (standard deviation) ([2]; 1 nanomoles peptide): 2.383 × 10^4 (4.6207 × 10^3)^a cfu

Sequence: LWLLGNTPLQDKGNSTHSRNNSYAVIITSTS (listed as Homo Sapiens) [Fourth domain, reference compound]
- Mean cfu of P. aeruginosa internalized (standard deviation) ([1]; 0.001 nanomoles peptide): 1.3275 × 10^5 (9.408 × 10^3) cfu
- Mean cfu of P. aeruginosa internalized (standard deviation) ([1]; 0.01 nanomoles peptide): 1.412 × 10^5 (7.1986 × 10^3) cfu
- Mean cfu of P. aeruginosa internalized (standard deviation) ([1]; 0.1 nanomoles peptide): 1.416 × 10^5 (1.195 × 10^4) cfu
- Mean cfu of P. aeruginosa internalized (standard deviation) ([1]; 1 nanomoles peptide): 1.42 × 10^5 (1.746 × 10^4) cfu
- Mean cfu of P. aeruginosa internalized (standard deviation) ([2]; 0.001 nanomoles peptide): 6.978 × 10^4 (5.4745 × 10^3) cfu
- Mean cfu of P. aeruginosa internalized (standard deviation) ([2]; 0.01 nanomoles peptide): 7.23 × 10^4 (3.6721 × 10^3) cfu
- Mean cfu of P. aeruginosa internalized (standard deviation) ([2]; 0.1 nanomoles peptide): 7.488 × 10^4 (5.0653 × 10^3) cfu
- Mean cfu of P. aeruginosa internalized (standard deviation) ([2]; 1 nanomoles peptide): 8.708 × 10^4 (4.0519 × 10^3) cfu
